Measurements as given in patent EP4483904A1, “POLYOXOMETALATES AS MEMBRANE CARRIERS” (Universität Wien, priority 2023, dated 2025).
Several values for one entry are separate records, joined by “and”; a condition that tells them apart may be missing. Identical values can stand only once. Like-named read-outs stand apart in the source and are kept apart here.

Tests used:
[1] = Transport experiments in CF-loaded zwitterionic EYPC vesicles (CF fluorescence, Hill analysis); format: biochemical; details: for cargo transport in CF-loaded vesicles (qualitative): LUVs loaded with CF, added cargo; for onset for transport activity (carrier concentration): vesicles, Fig. 4
Protocol: The dry film was rehydrated with 1 mL buffer (50 mM CF, 10 mM Hepes, pH 7.4 or 50 mM CF, 10 mM Tris, pH 7.4) for 30 min at room temperature, subjected to freeze-thaw cycles (7 times) and extrusions (15 times) through a polycarbonate membrane (pore size 100 nm). Extravesicular components were removed by size exclusion chromatography (NAP-25 column Sephadex G-25 DNA grade) with 10 mM Hepes, 107 mM NaCl, pH 7.4 or 10 mM Hepes, 107 mM NaCl, pH 7.4. Phospholipid concentration was calculated by the Stewart assay. […]
Vesicles stock solutions (5-10 µL) were diluted with the corresponding buffer in a disposable plastic cuvette and gently stirred (total volume 2000 µL, final lipid concentration 13 µM). […] Fluorescence intensities were normalized to fractional emission as: I(t) = (It −I0)/(I∞ −I0) [formula]
Where I0 = It before POM addition and […] = I∞ after lysis. For Hill analysis, It before lysis was defined as transport activity, Y, and plotted against POM concentration, c, and fitted to the Hill equation (2), to afford the activity in absence of POM, Y0, the maximal activity, Ymax, the concentration needed to achieve 50 % of maximal activity, EC50, and the Hill coefficient, n. Y = Y0 + (Ymax −Y0)/(1 + (((EC50)/(c)))^n) [formula]
In the transport measurements, where different carriers (POMs) are tested with the same cargo, the activator efficiency (E) is determined by their capacity to transport the impermeable cargo to the intravesicular region and is characterized by Ymax, its maximal activity, and EC50, the effective activator concentration. An ideal carrier reaches high Ymax at low EC50. To count both factors, the activator efficiency is defined as: E = Ymax (pEC50)/(f) [formula] were pEC50 is the negative logarithm of the EC50, and fa scaling factor, which was set to 20.6 to calibrate the highest (previously known) activation efficiency, E, as 10.
The capability of POMs to act as membrane carriers was explored first in large unilamellar vesicles (LUVs), loaded with carboxyfluorescein (CF). We selected […] representative cationic peptides, heptaarginine (heptaArg), heptalysine (heptaLys), protamine, and polyarginine (polyArg), as test cargos. Inside the LUVs, the CF dye was encapsulated at self-quenching concentrations. With a suitable carrier, heptaArg can be taken up into the vesicles, bind with entrapped CF, and shuttle back to the exterior, spreading the previously quenched CF, and thereby restoring its fluorescence (Fig. 3). In the time-resolved fluorescence experiments, to test whether a POM acts as molecular carrier, the CF emission was continuously monitored during the addition of the inorganic carrier (t = 60 s) and after injection the impermeable heptaArg (t = 120 s). At the end of the experiment (t = 600 s), the surfactant Triton X-100 was added to release all the entrapped CF and allow normalization of the intensity data (Fig. 4a).

[2] = Stability investigation by NMR spectroscopy (hydrolysis in buffer/media); format: physicochemical; details: for Hydrolysis/Stability pH 7.5: 10 mM Hepes or 10 mM Tris, pH 7.4; for Hydrolysis/Stability pH 7.5 / Hydrolysis/Stability pH 5.5: 107 mM NaCl; for Hydrolysis/Stability pH 5.5: 10 mM Mes
Description: POMs of the globular Keggin and planar Anderson archetype and with varying charge status from -3 to -8 (Fig. 1) were selected. To offset the known [XW12O40]^n- (X = hetero-ion) hydrolysis propensity in aqueous solution, most pronounced at neutral pH, more highly charged mixed-metal derivatives (Fig. 1,lefthand side) were also included. The latter are obtained by hydrolytic removal of one W=O^4+ unit from the Keggin structure and the subsequent incorporation of an addenda metal to fill the cavity of the monolacunary intermediate. In detail, the following POM anions were studied (as acid or sodium, potassium, or tetraalkylammonium salts), see Fig. 1: [α-P^VW^VI12O40]^3- ([PW12]^3-), [α-Si^IVW^VI12O40]^4- ([SiW12]^4-), [α-Al^IIIW^VI12O40]^5- ([AlW12]^5-), [α-P^VV^VW^VI11O40]^4- ([PVW11]^4-), [α-Si^IVMo^VIW^VI11O40]^4- ([SiMoW11]^4-), [α- HAl^IIIGe^IVW^VI11O39(H2O)]^5- ([GeAlW11]^5-), [{α-P^VW^VI11O39Zr^IV(µ-OH)(H2O)}2]^8- ([(PZrW11)2]^8-), and [Al^III(OH)6Mo^VI6O18]^3- ([AlMo6]^3-). First, their long-term (24 h and longer) stability in aqueous solution (slightly acidic and neutral) was investigated by applying the active NMR nuclei in their composition (see).

[3] = tested on: polyArg; assay: Isothermal titration calorimetry, POM into polyArg; format: binding; details: 10 mM Mes, pH 5.5, 298.15 K
Protocol: All experiments were performed with a VP-ITC MicroCalorimeter from MicroCal, Int,. at atmospheric pressure and 298.15 K. Solutions were degassed and thermostatic prior the titration experiments in a ThermoVac accessory. A constant volume of POM ([PVW11]^4- or [SiMoW11]^4-) (10 µL per injection) was injected into the oligopeptide solution (heptaArg, protamine, polyArg or heptaLys) in 10 mM Mes, pH 5.5 to determine the apparent binding affinity of [PVW11]^4- and [SiMoW11]^4- with the oligopeptides. Dilution heats were determined by titration of the POM into buffer and subtracted from the reaction heat. The neat reaction heat was fitted with Origin 7.0 software by using the "one-set-of-sites" model to obtain the complex stability constant (Ka) and molar reaction enthalpy (ΔH°). The free energy (ΔG°) and entropy changes (ΔS°) were obtained according to the relation: ΔG° = - R TInKa = ΔH°-TΔS°.

[4] = EYPC (zwitterionic), 13 µM phospholipids, 10 µM heptaLys
[5] = EYPC (zwitterionic), 13 µM phospholipids, 10 µM heptaLys, read-out: EC50
[6] = EYPC vesicles, 0.1 µM polyArg, neutral pH 7.4
[7] = EYPC vesicles, 0.1 µM polyArg, neutral pH 7.4, read-out: PolyArg EC50
[8] = EYPC vesicles, 1 µM protamine, neutral pH 7.4
[9] = EYPC vesicles, 1 µM protamine, neutral pH 7.4, read-out: Protamine EC50
[10] = EYPC vesicles, 10 µM heptaArg, neutral pH 7.4, E = Ymax(pEC50/f), f = 20.6
[11] = EYPC vesicles, 10 µM heptaArg, neutral pH 7.4, read-out: HeptaArg EC50
[12] = Nutrient mixture F-12 Ham after incubation for 1 h at 37 °C
[13] = EYPC vesicles, 0.1 µM polyArg, acidic pH 5.5
[14] = EYPC vesicles, 1 µM Protamine, acidic pH 5.5

K4[α-P^VV^VW^VI11O40]·4H2O [[PVW11]^4-]
E (activation efficiency) [1, 4]: 4.3
Ymax [1, 4]: 62%
EC50 [1, 5]: 38 µM
PolyArg E (activation efficiency) [1, 6]: 8.2
PolyArg Ymax [1, 6]: 88%
EC50 [1, 7]: 12 µM
Protamine E (activation efficiency) [1, 8]: 5.9
Protamine Ymax [1, 8]: 88%
EC50 [1, 9]: 41 µM
HeptaArg E (activation efficiency) [1, 10]: 5.3
EC50 [1, 11]: 49 µM
cargo transport in CF-loaded vesicles (qualitative) [1]: triggered the desired increase in fluorescence characteristic for cargo transport
onset for transport activity (carrier concentration) [1]: around 1 µM
Hydrolysis/Stability pH 7.5 [2]: 20 % to [P^VW^VI11O39]^7- and 20 % hydrolyzed to [P^VW^VI11O39]^7
Hydrolysis/Stability pH 5.5 [2]: stable
POM anions with % for parent (active) anion based on signals integration ([2]; D2O): [P^VV^VW^VI11O40]^4-
% of hydrolysis product [P^VW^VI11O39]^7- based on signals integration ([2]; Mes pH 5.5 after 1 day): 1%
POM anions with % for parent (active) anion based on signals integration ([2]; Mes pH 5.5 after 1 day): 99%
% of hydrolysis product [P^VW^VI11O39]^7- based on signals integration ([2]; Mes pH 5.5 after 5 days): 1%
POM anions with % for parent (active) anion based on signals integration ([2]; Mes pH 5.5 after 5 days): 99%
% of hydrolysis product [P^VW^VI11O39]^7- based on signals integration ([2]; Mes pH 5.5 freshly prepared): 1%
POM anions with % for parent (active) anion based on signals integration ([2]; Mes pH 5.5 freshly prepared): 99%
POM anions with % for parent (active) anion based on signals integration [2, 12]: [P^VW^VI11O39]^7- (coordinated to different alkali and earth alkali metals leading to different shifts) and [P^VV^VW^VI11O40]^4- (16 %)
POM anions with % for parent (active) anion based on signals integration ([2]; Nutrient mixture F-12 Ham freshly prepared): [P^VW^VI11O39]^7- (coordinated to different alkali and earth alkali metals leading to different shifts) and [P^VV^VW^VI11O40]^4- (43 %)
POM anions with % for parent (active) anion based on signals integration ([2]; Tris-HCl pH 7.5 after 1 day): [P^VW^VI11O39]^7- and [P^VV^VW^VI11O40]^4- (71 %)
POM anions with % for parent (active) anion based on signals integration ([2]; Tris-HCl pH 7.5 after 5 days): [P^VW^VI11O39]^7- and [P^VV^VW^VI11O40]^4- (68 %)
POM anions with % for parent (active) anion based on signals integration ([2]; Tris-HCl pH 7.5 freshly prepared): [P^VW^VI11O39]^7- and [P^VV^VW^VI11O40]^4- (81 %)
hydrolysis on long time scales at neutral pH ([2]; neutral pH, after 24 h): ca. 20%
PolyArg Ka/ 10^7 [3]: 3.5 ± 0.6 10^7 M-1

K4[α-Si^IVMo^VIW^VI11O40]·24H2O [[SiMoW11]^4-]
E (activation efficiency) [1, 4]: 4.4
Ymax [1, 4]: 54%
EC50 [1, 5]: 22 µM
PolyArg E (activation efficiency) [1, 13]: 9.7
PolyArg Ymax [1, 13]: 86%
EC50 ([1]; EYPC vesicles, 0.1 µM polyArg, acidic pH 5.5, read-out: PolyArg EC50): 5 µM
PolyArg E (activation efficiency) [1, 6]: 8.6
PolyArg Ymax [1, 6]: 94%
EC50 [1, 7]: 13 µM
Protamine E (activation efficiency) [1, 14]: 7.3
Protamine Ymax [1, 14]: 80%
EC50 ([1]; EYPC vesicles, 1 µM Protamine, acidic pH 5.5, read-out: Protamine EC50): 14 µM
Protamine E (activation efficiency) [1, 8]: 6.0
Protamine Ymax [1, 8]: 72%
EC50 [1, 9]: 19 µM
HeptaArg E (activation efficiency) ([1]; EYPC vesicles, 10 µM heptaArg, acidic pH 5.5): 6.6
HeptaArg Ymax ([1]; EYPC vesicles, 10 µM heptaArg, acidic pH 5.5 (10 mM Mes, 107 mM NaCl)): 66%
HeptaArg Ymax ([1]; EYPC vesicles, 10 µM heptaArg, neutral pH 7.4): 66%
HeptaArg E (activation efficiency) [1, 10]: 5.7
EC50 [1, 11]: 16.5 µM and 17 µM
cargo transport in CF-loaded vesicles (qualitative) [1]: triggered the desired increase in fluorescence characteristic for cargo transport
onset for transport activity (carrier concentration) [1]: around 1 µM
Hydrolysis/Stability pH 7.5 [2]: stable
Hydrolysis/Stability pH 5.5 [2]: stable
POM anions with % for parent (active) anion based on signals integration ([2]; Mes pH 5.5 (time not given)): [Si^IVMo^VIW^VI11O40]^4-
POM anions with % for parent (active) anion based on signals integration [2, 12]: [Si^IVMo^VIW^VI11O40]^4-
POM anions with % for parent (active) anion based on signals integration ([2]; Tris-HCl pH 7.5 (time not given)): [Si^IVMo^VIW^VI11O40]^4-
PolyArg Ka/ 10^7 [3]: 1.6 ± 0.2 10^7 M-1
